The target in experiment [1] is T1, Ubiquitin carboxyl-terminal hydrolase isozyme L3 (Homo sapiens, UniProt P15374).
T1 sequence (P15374 whole entry): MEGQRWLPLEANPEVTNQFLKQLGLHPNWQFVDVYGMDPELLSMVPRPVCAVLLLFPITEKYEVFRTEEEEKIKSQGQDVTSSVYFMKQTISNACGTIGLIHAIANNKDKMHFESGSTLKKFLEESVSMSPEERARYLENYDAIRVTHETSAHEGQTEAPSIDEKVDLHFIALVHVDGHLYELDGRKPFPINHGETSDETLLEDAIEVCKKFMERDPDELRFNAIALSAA
In words: Inhibition of UCHL3 in human H1299 cells. It counts as cell-based.

For experiment [2], the target named is T2, Ubiquitin carboxyl-terminal hydrolase isozyme L1 (Homo sapiens, UniProt P09936).
T2 sequence (P09936 whole entry): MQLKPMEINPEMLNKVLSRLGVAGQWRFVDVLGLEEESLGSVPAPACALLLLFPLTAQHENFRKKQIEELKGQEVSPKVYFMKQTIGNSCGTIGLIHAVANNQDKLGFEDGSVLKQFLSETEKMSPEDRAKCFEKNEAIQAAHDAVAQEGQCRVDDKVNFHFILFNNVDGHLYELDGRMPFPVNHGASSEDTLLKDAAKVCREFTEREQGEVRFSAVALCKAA
Briefly: Inhibition of UCHL1 in human H1299 cells. It counts as cell-based.

In a further experiment the target is T3, Caspase-3 (Homo sapiens, UniProt P42574).
T3 sequence (P42574 whole entry): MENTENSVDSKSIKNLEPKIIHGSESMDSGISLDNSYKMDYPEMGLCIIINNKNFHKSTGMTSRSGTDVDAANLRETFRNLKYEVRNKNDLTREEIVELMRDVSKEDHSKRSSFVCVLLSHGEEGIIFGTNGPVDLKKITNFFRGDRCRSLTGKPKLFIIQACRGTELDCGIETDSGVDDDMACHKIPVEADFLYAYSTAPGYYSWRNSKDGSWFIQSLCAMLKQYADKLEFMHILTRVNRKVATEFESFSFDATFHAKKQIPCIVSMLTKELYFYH
Briefly: Inhibition of caspase3.

Experiment [3] concerns the target T4, Protein-glutamine gamma-glutamyltransferase (Homo sapiens, UniProt P21980).
T4 sequence (P21980 whole entry): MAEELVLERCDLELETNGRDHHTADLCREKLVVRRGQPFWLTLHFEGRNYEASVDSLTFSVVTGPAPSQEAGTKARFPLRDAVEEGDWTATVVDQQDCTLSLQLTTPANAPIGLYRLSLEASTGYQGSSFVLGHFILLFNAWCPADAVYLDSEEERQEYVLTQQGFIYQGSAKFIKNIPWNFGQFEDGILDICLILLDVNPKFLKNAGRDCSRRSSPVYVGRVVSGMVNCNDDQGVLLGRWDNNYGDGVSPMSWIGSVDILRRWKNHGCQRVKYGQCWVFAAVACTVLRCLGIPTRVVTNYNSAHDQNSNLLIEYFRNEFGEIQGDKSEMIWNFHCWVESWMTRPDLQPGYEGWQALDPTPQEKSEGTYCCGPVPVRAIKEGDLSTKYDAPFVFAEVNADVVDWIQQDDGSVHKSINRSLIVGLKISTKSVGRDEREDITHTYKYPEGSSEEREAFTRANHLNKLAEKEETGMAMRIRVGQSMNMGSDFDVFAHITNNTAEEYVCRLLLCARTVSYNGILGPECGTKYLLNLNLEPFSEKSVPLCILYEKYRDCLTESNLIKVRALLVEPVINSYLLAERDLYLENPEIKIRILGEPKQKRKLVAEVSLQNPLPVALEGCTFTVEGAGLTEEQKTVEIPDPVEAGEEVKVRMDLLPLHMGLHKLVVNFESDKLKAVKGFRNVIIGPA
In words: Inhibition of tissue transglutaminase.

Experiment [4] addresses T5, Ubiquitin carboxyl-terminal hydrolase 5 (Homo sapiens, UniProt P45974).
T5 sequence (P45974 whole entry): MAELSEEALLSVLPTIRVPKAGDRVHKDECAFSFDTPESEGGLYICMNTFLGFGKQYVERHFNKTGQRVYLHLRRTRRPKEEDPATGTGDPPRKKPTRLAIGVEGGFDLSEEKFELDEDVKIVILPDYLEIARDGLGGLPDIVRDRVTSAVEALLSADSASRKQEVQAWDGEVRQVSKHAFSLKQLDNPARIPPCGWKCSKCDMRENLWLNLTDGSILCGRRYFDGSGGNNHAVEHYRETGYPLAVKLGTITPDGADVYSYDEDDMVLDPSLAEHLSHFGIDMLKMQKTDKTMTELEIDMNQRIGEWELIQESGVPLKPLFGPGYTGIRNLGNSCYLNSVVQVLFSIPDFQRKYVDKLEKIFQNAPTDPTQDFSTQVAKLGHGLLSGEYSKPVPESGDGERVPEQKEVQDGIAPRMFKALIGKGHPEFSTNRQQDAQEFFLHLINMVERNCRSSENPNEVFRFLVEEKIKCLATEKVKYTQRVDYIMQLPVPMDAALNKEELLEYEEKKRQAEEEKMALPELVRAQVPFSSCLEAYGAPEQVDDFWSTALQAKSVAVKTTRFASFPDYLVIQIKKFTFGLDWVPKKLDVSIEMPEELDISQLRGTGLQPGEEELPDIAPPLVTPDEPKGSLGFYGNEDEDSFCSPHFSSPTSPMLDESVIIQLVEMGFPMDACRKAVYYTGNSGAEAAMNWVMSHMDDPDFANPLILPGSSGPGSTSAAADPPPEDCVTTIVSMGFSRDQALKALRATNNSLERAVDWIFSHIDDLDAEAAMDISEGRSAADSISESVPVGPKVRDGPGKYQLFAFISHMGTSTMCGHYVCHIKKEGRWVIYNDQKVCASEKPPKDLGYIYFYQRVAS
In words: Inhibition of isopeptidase T.

Experiment [5] deals with T1, Ubiquitin carboxyl-terminal hydrolase isozyme L3. Briefly: Inhibition of UCHL3.

The results in this text go back to ChEMBL document CHEMBL1240332, “Mechanisms, biology and inhibitors of deubiquitinating enzymes” (Nat Chem Biol, 2007).

The term IC50 denotes the concentration needed to halve the response being measured. The low end stands for inhibition by little substance, the high end for a need for much substance. As a reminder, the Ki is a measure of affinity in units of concentration, obtained from inhibition or displacement. A low value points to a stronger hold on the target.

As for `CC1=CC(=O)c2ccccc2C1=O` [MENADIONE], the IC50 in experiment [1] was 71 µM; in experiment [2], 290 µM.
The corresponding values for `CC(=O)O/N=C1/C(=O)N(Cc2ccc(Cl)c(Cl)c2)c2ccc(Br)cc21` are 17 µM and 0.81 µM.
Turning to `Nc1c(C(=O)c2ccccc2)sc2[nH]c(=O)c(C(=O)O)cc12`, the Ki (on Caspase-3; in experiment [3]; in experiment [4]; in experiment [5]) was over 100 µM each time.
On to `CCCCc1ccc(-c2n[nH]c(=S)n2-c2ccc(C(C)C)cc2)cc1`, for which the IC50 in experiment [1] turned out to be 47 µM; in experiment [2], 126 µM.
The corresponding values for `O=C1CC(=O)c2c(Cl)c(Cl)c(Cl)c(Cl)c21` are 0.6 µM and 75 µM.
Taken in the same sequence, the figures for `CC(=O)O/N=C1/C(=O)N(Cc2cc(Cl)ccc2Cl)c2ccc(Br)cc21` were 25 µM and 0.88 µM.
The corresponding values for `CC(=O)O/N=C1/C(=O)N(Cc2ccc(Cl)c(Cl)c2)c2ccc(I)cc21` are 23 µM and 0.94 µM.
